Test system: tobacco line pACAG029#4
Settings: in vivo
From the text: FIG. 36—tet-Inducible Herbicide Resistance: Spray Test of F1 Seedlings and Seeds of Tobacco Line pACAG029#4. Seedlings at different stages of development (1 and 2 weeks old), produced by germination in 2.5″×2.5″ pots with Metro mix, were used for assessing tet inducible herbicide resistance in a post-emergence test. For pre-emergency application, seeds were sown on the Metro mix right before PURSUIT®, application. 15-20 seeds were placed in each pot. Pots were sprayed with doxycycline premixed with PURSUIT®, each at different rates. The test was evaluated two weeks after the spray. Each pot in the figure represents a unique experiment in terms of the combination of chemical rates and the stage of seedling development. As shown in the figure, the rate of herbicide resistance directly corresponded with increased doxycycline application rates.
Induction of herbicide resistance in plants growing in soil has been investigated. Transgenic F1 heterozygous tobacco seeds of the line pACAG029#4 (this line has been shown elsewhere herein to provide the best repression/induction in tissue culture tests) ere used for the spray test. Seedlings at different stages of development (1 and 2 weeks old) produced by germination of seeds in 2.5″×2.5″ pots with Metro mix were used for post-emergence test. For pre-emergency application, seeds were sown on the Metro mix right before the application of herbicide. […]

C[C@H]1c2cccc(O)c2C(=O)C2=C(O)[C@]3(O)C(=O)C(C(N)=O)=C(O)[C@@H](N(C)C)[C@@H]3[C@@H](O)[C@@H]21 [doxycycline]
plant injury in spray test: caused some injury and stunted growth of plants

— patent US20050034187A1, “Modified tet-inducible system for regulation of gene expression in plants” (priority 2000, published 2005)
